From ChEMBL document CHEMBL1938256, “Synthesis and DNA cleavage studies of novel quinoline oxime esters” (Bioorg Med Chem Lett, 2012)
Activity calls are given as the source filed them. The rule behind the calls is not given here.

Legend:
Format in all cases: nucleic-acid assay
Nucleic Acid [1] = assay: Induction of Escherichia coli pUC19 DNA cleavage assessed as conversion of supercoiled DNA into nicked circular form at 40 to 80 uM by neutral agarose gel electrophoresis in presence of UV light
Nucleic Acid [2] = assay: Induction of UV light-induced Escherichia coli pUC19 DNA cleavage assessed as conversion of supercoiled DNA into nicked form at 80 uM by neutral agarose gel electrophoresis
Nucleic Acid [3] = assay: Induction of UV light-induced Escherichia coli pUC19 DNA cleavage assessed as conversion of supercoiled DNA into linear form at 80 uM by neutral agarose gel electrophoresis

Activity (Nucleic Acid [1]) | Activity (Nucleic Acid [2]) | Activity (Nucleic Acid [3]) | Compound
Active | Active | Active | O=C(O/N=C/c1cc2ccccc2nc1Cl)c1cc([N+](=O)[O-])cc([N+](=O)[O-])c1
Active | Active | Active | O=C(O/N=C/c1cc2ccccc2nc1Cl)c1ccc(F)cc1
Active | inactive | inactive | O=C(O/N=C/c1cc2ccccc2nc1Cl)c1ccccc1
Active | Active | Active | O=C(O/N=C/c1cc2ccccc2nc1Cl)c1ccc(Br)cc1
Active | inactive | inactive | O=C(O/N=C/c1cc2ccccc2nc1Cl)c1ccc(O)cc1
Active | inactive | inactive | COc1ccc(C(=O)O/N=C/c2cc3ccccc3nc2Cl)cc1
Active | Active | Active | O=C(O/N=C/c1cc2ccccc2nc1Cl)c1ccc([N+](=O)[O-])cc1
Active | Active | Active | O=C(O/N=C/c1cc2ccccc2nc1Cl)c1ccccc1F
Active | Active | Active | O=C(O/N=C/c1cc2ccccc2nc1Cl)c1ccc(Cl)cc1
